Results taken from patent US20260007613A1, “LONG-ACTING LOW-TOXICITY NOVEL CATIONIC LIPID COMPOUNDS AND COMPOSITION THEREOF” (BEIJING YOUCAREKECHUANG PHARMACEUTICAL TECHNOLOGY CO., LTD., priority 2023, published 2026).

Key:
[1] = Particle size and polydispersity index (PDI) of lipid nanoparticles by dynamic light scattering; type: physicochemical; details: LNP formulation prepared from the cationic lipid, 25° C.
Description: The particle size and polydispersity index (PDI) were determined by dynamic light scattering using Malvern laser particle size analyzer.
10 μL of the liposome solution was weighed, diluted to 1 mL with RNase-free deionized water, and added to the sample pool. Each sample was measured in triplicate. The measurement conditions were: […] scattering angle, and 25° C.

293T cells [2] = experiment: Fluorescent detection of Fluc-mRNA (cell transfection efficiency of LNP formulations); type: cell-based; details: for Relative light unit (RLU): LNP formulation of Fluc-mRNA, 96-well plate, 24 hours; for Multiples (YK-305): RLU of YK-305 / RLU of the lipid of the line; for Multiples (YK-310): RLU of YK-310 / RLU of the lipid of the line; for Multiples (YK-312): RLU of YK-312 / RLU of the lipid of the line; for Multiples (YK-318): RLU of YK-318 / RLU of the lipid of the line; for Multiples (YK-318) / Multiples (YK-319): Tables 5, 7, 11; for Multiples (YK-319): RLU of YK-319 / RLU of the lipid of the line; for Ratio relative to SM-102: RLU of the lipid / RLU of SM-102, times that of SM-102
Description: (§1) Cell recovery and passage: 293T cells were recovered, cultured in a culture dish, and passaged to the required number of cells.
(§2) Seeding plate: The cells in the culture dish were digested and counted. Cells were spread in a 96-well plate at 10,000 cells per well and in a 12-well plate at 150,000 cells per well. Cells were cultured overnight until the cells adhered to the wall.
(§3) Cell recovery and passage: the method was the same as in Example 3.
(§4) Seeding plate: the method was the same as in Example 3.
An LNP formulation containing […] of Fluc-mRNA (the carrier components of the LNP formulation were cationic lipid, neutral lipid, structured lipid and polymer-conjugated lipid with a molar ratio of 49:10:39.5:1.5, wherein the cationic lipid was listed in Table 1) was added to the cell culture medium of a 96-well plate, and further incubated for 24 hours. The corresponding reagent was added according to the instructions of the […] Luciferase Assay Kit, and the fluorescence expression intensity of each well was detected by an IVIS fluorescence detection system. This test verified the transfection efficiencies of LNP formulations in cells, see Tables 4-7 for specific test results.

293T cells [3] = experiment: Cell survival rate determination (CCK-8); type: cell-based; details: LNP formulation of Fluc-mRNA, 24 hours, CCK-8
Description: as §1, §2, §3, §4
An LNP formulation containing […] of Fluc-mRNA (the carrier components of the LNP formulation were cationic lipid, neutral lipid, structured lipid and polymer-conjugated lipid with a molar ratio of 49:10:39.5:1.5, wherein the cationic lipid was listed in Table 1) and the formulation of Lipofectamine 3000 were added to the cell culture medium of a 96-well plate, and further cultivated for 24 hours. 10 μL of CCK-8 solution was then added to each well, and the culture plate was incubated in an incubator for 1 hour. The absorbance at 450 nm was measured by a microplate reader.
Cell survival rate can represent the toxicity of cationic lipids to cells. The higher the cell survival rate, the lower the toxicity to cells.

female BALB/C mice = experiment: Live imaging in mice: protein expression of Fluc-mRNA delivered by LNP formulations; type: in vivo
Description: In addition, the protein expression and duration of mRNA in mice delivered by the cationic lipid delivery carriers designed were also verified.
The LNP formulation containing […] Fluc-mRNA was injected intramuscularly into female BALB/C mice aged 4 to 6 weeks old and weighed 17 to 19 g, and the mice were intraperitoneally injected with fluorescent imaging substrate at specific time points after administration (6 h, 24 h, 48 h and 7 d), where the mice were free to move for 5 minutes, and then the average radiation intensity (corresponding to fluorescence expression intensity) of the protein expression of the mRNA carried by the LNP in the mice was detected by the IVIS Spectrum small animal live imaging device.

[4] = 6 h after intramuscular injection
[5] = 24 h after intramuscular injection
[6] = 48 h after intramuscular injection
[7] = 7 d after intramuscular injection

Compound | PDI (%) [1] [%] | Particle size (nm) [1] [nm] | Relative light unit (RLU) (293T cells [2]) | Multiples (YK-305) (293T cells [2]) | Multiples (YK-310) (293T cells [2]) | Multiples (YK-312) (293T cells [2]) | Multiples (YK-318) (293T cells [2]) | Multiples (YK-319) (293T cells [2]) | Ratio relative to SM-102 (293T cells [2]) | Cell survival rate (%) (293T cells [3]) | average radiation intensity (female BALB/C mice; [4]) | average radiation intensity (female BALB/C mice; [5]) | average radiation intensity (female BALB/C mice; [6]) | average radiation intensity (female BALB/C mice; [7]) | Cell survival rate (%) (293T cells [3]; listed as YK 303)
CCCCCCCCCCOC(=O)CCCN(CCO)CCCCCC(=O)OCC(CCCCCCCC)CCCCCCCC [YK-009, reference compound] | 18.1 | 192 | 5118942 | 5.35 | 5.04 | 3.94 | 2.19 | 4.78 | 3.19 | 72.55 | 1004580 | 754120 | 110140 | 9984 | –
CCCCCCCCCCOC(=O)CCCN(CCCCCC(=O)OCC(CCCCCCCC)CCCCCCCC)C[C@H](O)CN(C)CCO [YK-301, (R)-2-octyldecyl-6-((4-(decyloxy)-4-oxobutyl)((2-hydroxy-3-(2-hydroxyethyl)(methyl)amino)propyl)amino)hexanoate] | 7.0 | 192 | 842452 | 32.53 | 30.62 | 23.92 | 13.28 | 29.04 | – | 52.96 | – | – | – | – | –
CCCCCCCCCCOC(=O)CCCN(CCCCCC(=O)OCCC(CCCCCC)CCCCCC)C[C@H](O)CN(C)CCO [YK-302] | 13.4 | 186 | 27778 | 936.71 | 928.69 | 725.34 | 402.84 | 880.83 | – | 16.43 | 14580 | 8956 | 4025 | 884 | –
CCCCCCCCCCCOC(=O)CCCCCN(CCCC(=O)OCCCC(CCCCCCCCCC)CCCCCCCCCC)C[C@H](O)CN(C)CCO [YK-303, (R)-undecyl-6-(4-(4-decyltetradecyloxy)-4-oxobutyl)((2-hydroxy-3-((2-hydroxyethyl)(methyl)amino)propyl)amino)hexanoate] | – | – | 626314 | 43.76 | 41.19 | 32.17 | 17.87 | 39.07 | – | 82.18 | – | – | – | – | 63.32
CCCCCCCCCCCOC(=O)CCCCCN(CCCCCC(=O)OCCCCCCCCCCC)C[C@H](O)CN(C)CCO [YK-304, (R)-bis(undecyl)-6,6′-((2-hydroxy-3-((2-hydroxyethyl)(methyl)amino)propyl)azanediyl)dihexanoate] | 19.8 | 149 | 20686 | 1324.99 | 1247.08 | 974.01 | 540.95 | 1182.82 | – | 34.16 | – | – | – | – | –
CCCCCCC(CCCCCC)CCOC(=O)CCCCCN(CCCCCC(=O)OCCC(CCCCCC)CCCCCC)C[C@H](O)CN(C)CCO [YK-306, (R)-bis(3-hexylnonyl)-6,6′-((2-hydroxy-3-((2-hydroxyethyl)(methyl)amino)propyl)azanediyl)dihexanoate] | 13.6 | 228 | 2197174 | 12.47 | 11.14 | 9.17 | 5.09 | 11.14 | – | 42.19 | – | – | – | – | –
CCCCCCCCCCC(CCCCCCCCCC)CCCOC(=O)CCCN(CCCC(=O)OCCCC(CCCCCCCCCC)CCCCCCCCCC)C[C@H](O)CN(C)CCO [YK-307] | 32.2 | 210 | 4557420 | 6.01 | 5.66 | 4.42 | 2.46 | 5.37 | – | 61.14 | – | – | – | – | –
CCCCCCCCCCOC(=O)CCCN(CCCCCC(=O)OCC(CCCCCCCC)CCCCCCCC)C[C@H](O)CN(CC)CCO [YK-308] | 13.4 | 211 | 5036582 | 5.44 | 5.12 | 4.00 | – | – | 3.14 | 70.99 | – | – | – | – | –
CCCCCCC(CCCCCC)CCOC(=O)CCCCCN(CCCCCC(=O)OCCC(CCCCCC)CCCCCC)C[C@H](O)CN(CC)CCO [YK-311] | 31.1 | 209 | 1963636 | 13.96 | 13.14 | 10.26 | – | – | 1.22 | 70.06 | – | – | – | – | –
CCCCCCCCC(CCCCCCCC)OC(=O)CCCCCCCN(CCCCCCCC(=O)OC(CCCCCCCC)CCCCCCCC)C[C@H](O)CN(CC)CCO [YK-314] | 24.6 | 235 | 547434 | 50.07 | 47.12 | 36.81 | – | – | 0.34 | 67.88 | – | – | – | – | –
CCCCCCCCCCC(CCCCCCCCCC)CCCOC(=O)CCCN(CCCC(=O)OCCCC(CCCCCCCCCC)CCCCCCCCCC)C[C@H](O)CN(CC)CCO [YK-315] | 34.9 | 181 | 1587188 | 17.27 | 16.25 | 12.69 | – | – | 0.99 | 71.28 | – | – | – | – | –
CCCCCCCCC(CCCCCCCC)COC(=O)CCCCCN(CCCCCC(=O)OCC(CCCCCCCC)CCCCCCCC)C[C@H](O)CN(CCO)CCO [YK-316, (S)-bis(2-octyldecyl)-6,6′-(((3-(bis(2-hydroxyethyl)amino)-2-hydroxypropyl)azanediyl))dihexanoate] | 17.5 | 188 | 4810210 | 5.70 | 5.36 | 4.19 | 2.33 | 5.09 | 3.00 | 70.53 | – | – | – | – | –
CCCCCCC(CCCCCC)CCOC(=O)CCCCCN(CCCCCC(=O)OCCC(CCCCCC)CCCCCC)C[C@H](O)CN(CCO)CCO [YK-317, (S)-Bis(3-hexylnonyl)-6,6′-((3-(bis(2-hydroxyethyl)amino)-2-hydroxypropyl)azanediyl)dihexanoate] | 16.4 | 255 | 3605054 | 7.60 | 7.16 | 5.59 | 3.10 | 6.79 | 2.25 | 59.18 | – | – | – | – | –
CCCCCCCCC(CCCCCCCC)OC(=O)CCCCCCCN(CCCCCCCC(=O)OC(CCCCCCCC)CCCCCCCC)C[C@H](O)CN(CCO)CCO [YK-320, (S)-Bis(heptadecan-9-yl)-8,8′-((3-(bis(2-hydroxyethyl)amino)-2-hydroxypropyl)azanediyl)dicaprylate] | 19.6 | 212 | 2702966 | 10.14 | 9.54 | 7.45 | 4.14 | 9.05 | 1.69 | 71.07 | – | – | – | – | –
